According to patent publication US20230355644A1, “ACTIVE INGREDIENTS AND DRUGS FOR THE THERAPY OF VIRAL DISEASES, ESPECIALLY CORONA INFECTIONS, ESPECIALLY COVID-19” (Creative Therapeutics GmbH, priority 2020, published 2023):
Where two headings read alike, the source gives them in different places.

Legend:
[1] = tested on: COVID-19; details: in vivo; cited from earlier work
[2] = tested on: UWB1,289 ovarian cancer cells; assay: whole transcriptome sequencing (RNA-Seq) of treated ovarian cancer cells; assay type: cell-based; details: 24 hours; for CDKN1A transcription / DNA repair systems (MMR, BER, NER, ATM/ATR, HR) down-regulated at the transcription level / changes in the transcriptome versus non-treated controls (PCA plot, number of differentially transcribed genes) / expression of CDK family genes / CDK proteins / expression of DNA repair enzymes / transcripts of DNA repair systems: 1,000 μM compound (IV-A3) or 40 μM compound (III-A)
[3] = tested on: HI-viruses; assay: EASY-HIT assay; assay type: cell-based
[4] = tested on: SARS-CoV-2; assay: therapeutic effect against SARS-CoV-2 infection in mouse model; assay type: in vivo; details: K18-hACE2 transgenic mice; intra-peritoneal 150 mg/kg 30 minutes before and 500 mg/kg three hours after infection; two days post infection
Method: Studies of the Therapeutic Effect in the Mouse Model • To investigate the therapeutic effect of compound (VI-A) against SARS-CoV-2 infection in mouse model, K18-hACE2 transgenic mice were used. The viruses used were a German isolate of SARS-CoV-2. The study was conducted as a feasibility study with two groups (test group, control group) based on six mice each, i.e. a total of 12 animals. The two groups of mice were mildly anesthetized by inhalation of 3% isoflurane and intranasally inoculated with 300 KWSIU (FFU) of SARS-CoV-2. Treatment with the compound (VI-A) was performed by intra-peritoneal injection or application. Treatment of the first group began 30 minutes before infection with a compound concentration or dosage of 150 mg/kg. In addition, three hours after infection, the test mice were administered another 500 mg/kg of the compound (dissolved in 100 μl total volume of simply concentrated PBS buffer with pH 7.4). In the second group (positive control or control group), the mice were infected equally but treated with PBS buffer alone without the addition of diphenyl derivatives or triazenes (sham treatment). Two days post infection, the animals were euthanized. The clinical score (“clinical score”), comprising the recording of weight and clinical signs, of the animals was determined. To determine the success of therapy, the viral load in the lungs was determined by qPCR.

[5] = tested on: SARS-CoV-2; assay type: cell-based; details: Vero-E6 cells; dilutions 1/4000 to 1/500; FIGS. 3A and 3B
[6] = tested on: SARS-CoV-2; assay type: cell-based; details: Caco-2 cells; for decrease in viral load versus untreated cells (100%): strongest dilution 1/4000 (25 μg/ml)
[7] = dilutions 1/4000 to 1/500, FIGS. 2A and 2B

## CCN(CC)CCCC(C)Nc1ccnc2cc(Cl)ccc12 (stereo not drawn) [Chloroquine]
[1]
  efficacy in COVID-19: no evidence of efficacy

## CN(C)/N=N/c1ccc(C(=O)c2ccc(O)cc2)cc1 [compound (III-A)]
[2]
  CDKN1A transcription: consistent upregulation
  DNA repair systems (MMR, BER, NER, ATM/ATR, HR) down-regulated at the transcription level: −1.09 log 2FC
  changes in the transcriptome versus non-treated controls (PCA plot, number of differentially transcribed genes): sufficient change in the transcriptome
  expression of CDK family genes / CDK proteins: downregulation
  expression of DNA repair enzymes / transcripts of DNA repair systems: downregulation

## CN(C)N=Nc1ccc(C(=O)c2ccc(OS(=O)(=O)[O-])cc2)cc1.[Na+] [compound (IV-A3)]
[2]
  CDKN1A transcription: strongly induced
  DNA repair systems (MMR, BER, NER, ATM/ATR, HR) down-regulated at the transcription level: −1.09 log 2FC
  changes in the transcriptome versus non-treated controls (PCA plot, number of differentially transcribed genes): more pronounced changes in the transcriptome than compound (III-A)
  expression of CDK family genes / CDK proteins: marked down regulation
  expression of DNA repair enzymes / transcripts of DNA repair systems: extensive downregulation
[2]; 1,000 μM compound (IV-A3), genes differentially expressed in both UWB1,289 cell lines
  induction of CDKN1A: 4.49 log 2FC
[2]; 1,000 μM
  expression of cadherin cell adhesion molecule genes, particularly CDH6: downregulated
[2]; 1,000 μM, both cell lines
  expression of DNA dealkylation pathway proteins (APEX1, TET1, ALKBH2): consistently downregulated

## CN(C)/N=N/c1ccc(C(=O)c2ccc(OS(=O)(=O)O)cc2)cc1 [compound (IV-A)]
[3]
  inhibitory effect on HI-viruses: first inhibitory effect
[4]
  viral load in the lungs by qPCR versus positive control group: significantly reduced viral load in the lungs

## CN(C)/N=N/c1ccc(C(=O)c2ccc(O)cc2)cc1 [compound (IV-B)]
[5]
  decrease in viral load in treated versus untreated cells: significant decrease in viral load
[3]
  inhibitory effect on HI-viruses: first inhibitory effect
[6]; [7]
  decrease in viral load in treated versus untreated cells: Particularly good results
[6]; FIG. 2A
  decrease in viral load versus untreated cells (100%): 50%
[6]; FIG. 2B
  decrease in viral load versus untreated cells (100%): 40%
[4]
  viral load in the lungs by qPCR versus positive control group: significantly reduced viral load in the lungs

## CN(C)/N=N/c1ccc(C(=O)c2ccc(OCCC(=O)NCC(=O)O)cc2)cc1 [compound (VI-A)]
[5]
  decrease in viral load in treated versus untreated cells: significant decrease in viral load
[3]
  inhibitory effect on HI-viruses: first inhibitory effect
[4]
  histological examination of the lung tissue versus control group: significantly reduced incidence of infection
  viral load in the lungs by qPCR versus positive control group: significantly lower

## CN(C)/N=N/c1ccc(C(=O)c2ccc(OCCC(=O)O)cc2)cc1 [compound (VIII-A)]
[5]
  decrease in viral load in treated versus untreated cells: greatest decrease in viral load
[3]
  inhibitory effect on HI-viruses: first inhibitory effect
[6]; dilution of 1/500 (1000 μg/ml)
  decrease in viral load in treated versus untreated cells: best results in terms of viral load decrease
[6]; [7]
  decrease in viral load in treated versus untreated cells: Particularly good results
[4]
  viral load in the lungs by qPCR versus positive control group: significantly reduced viral load in the lungs

## CCN(CCO)CCCC(C)Nc1ccnc2cc(Cl)ccc12 (stereo not drawn) [hydroxychloroquine]
[1]
  efficacy in COVID-19: no evidence of efficacy

## Tocilizumab: monoclonal antibody approved for the treatment of various forms of rheumatoid arthritis and cytokine release syndrome
[1]
  efficacy in COVID-19: ineffective
